Columns and labels:
[1] = test system: rat paw edema (carrageenan foot edema); assay: Rat carrageenan foot pad edema test; format: in vivo, rat (male Sprague-Dawley); details: dosed orally 1 h before carrageenan, foot volume 3 h after carrageenan
Protocol: Rat Carrageenan Foot Pad Edema Test
The carrageenan foot edema test was performed with materials, reagents and procedures essentially as described by winter, et al., (Proc. Soc. Exp. Biol. Med., 111, 544 (1962)). Male Sprague-Dawley rats were selected in each group so that the average body weight was as close as possible. Rats were fasted with free access to water for over sixteen hours prior to the test. The rats were dosed orally (1 mL) with compounds suspended in vehicle containing 0.5% methylcellulose and 0.025% surfactant, or with vehicle alone. One hour later a subplantar injection of 0.1 mL of 1% solution of carrageenan/sterile 0.9% saline was administered and the volume of the injected foot was measured with a displacement plethysmometer connected to a pressure transducer with a digital indicator. Three hours after the injection of the carrageenan, the volume of the foot was again measured. The average foot swelling in a group of drug-treated animals was compared with that of a group of placebo-treated animals and the percentage inhibition of edema was determined (Otterness and Bliven, Laboratory Models for Testing NSAIDs, in Non-steroidal Anti-Inflammatory Drugs, (J. Lombardino, ed. 1985)).

5-lipoxygenase (5-LO) = target: T1, 5-lipoxygenase (5-LO) (Homo sapiens, UniProt P09917); assay: Assay for 5-lipoxygenase activity: calcium ionophore-induced LTB4 production in human whole blood; format: cell-based; details: A-23187 (20 μg/ml)-induced LTB4 in human whole blood; mean IC50
T1 construct: calcium ionophore-induced Leukotriene B4 (LTB4) production in human whole blood; endogenous in cells; host or cells: human whole blood (healthy donors), diluted 1:4 in RPMI 1640
T1 sequence (P09917 1-674): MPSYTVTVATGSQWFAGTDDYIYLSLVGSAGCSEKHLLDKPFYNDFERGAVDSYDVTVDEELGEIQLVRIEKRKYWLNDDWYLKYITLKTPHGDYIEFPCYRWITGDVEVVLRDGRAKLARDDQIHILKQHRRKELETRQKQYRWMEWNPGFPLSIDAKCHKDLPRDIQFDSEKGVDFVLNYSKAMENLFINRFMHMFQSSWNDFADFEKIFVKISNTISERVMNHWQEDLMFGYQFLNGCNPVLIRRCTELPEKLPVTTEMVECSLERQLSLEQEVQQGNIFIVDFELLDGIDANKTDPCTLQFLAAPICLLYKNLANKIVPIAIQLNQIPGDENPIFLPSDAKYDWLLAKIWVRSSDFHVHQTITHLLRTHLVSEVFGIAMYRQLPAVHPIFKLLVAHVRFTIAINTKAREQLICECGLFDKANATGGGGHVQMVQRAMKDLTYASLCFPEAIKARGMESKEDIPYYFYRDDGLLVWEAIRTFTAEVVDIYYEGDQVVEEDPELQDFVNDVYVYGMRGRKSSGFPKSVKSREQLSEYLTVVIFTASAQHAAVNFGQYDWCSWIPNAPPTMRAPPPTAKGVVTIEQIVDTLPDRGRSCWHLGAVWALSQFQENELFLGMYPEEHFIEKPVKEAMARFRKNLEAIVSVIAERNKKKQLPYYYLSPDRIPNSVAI
Protocol: Assay for 5-Lipoxygenase Activity
The 5-lipoxygenase (5-LO) activity of the compounds were determined by the calcium ionophore-induced Leukotriene B4 (LTB4) production in human whole blood. Venous blood was collected from healthy human donors using heparin as an anti-coagulant. Human blood samples (0.2 ml of a 1:4 dilution in RPMI 1640 medium) were incubated in 96-well culture plates for 15 minutes at 37° C. with test compounds dissolved in ethanol (EtOH; final concentration<1%), or vehicle. Typically 7 concentrations of test compounds were examined in duplicate. A-23187 [Sigma] was added to the blood to a final concentration of 20 μg/ml, and the mixtures were incubated for 10 minutes at 37° C. The reaction was stopped by placing the samples on ice. The samples were then centrifuged at 800×g at 4° C. for 10 minutes to pellet the cells, and the supernatants were recovered for quantitation of LTB4 by LISA (Cayman Chemical Co.; sensitivity 3 pg/ml). IC50's were estimated from a four parameter logistic model with two parameters fixed, the minimum (0% inhibition) and maximum (100% inhibition). The IC50 value is the concentration that produces 50% inhibition between the fixed values of the minimum and maximum. Data is reported as the mean IC50 for each compound.

COX-1 = COX-1 (UniProt P23219); assay: Assay for COX-1 activity in vitro (PGE2 ELISA, recombinant enzyme); format: biochemical, human or murine; details: recombinant COX-1, arachidonic acid 10 μM, pre-incubation 10–20 minutes
Protocol: Evaluation of COX-1 and COX-2 Activity in vitro a. Preparation of Recombinant COX Baculoviruses
(§1) Recombinant COX-1 and COX-2 were prepared as described by Gierse et al, [J. Biochem., 305, 479–84 (1995)]. A 2.0 kb fragment containing the coding region of either human or murine COX-1 or human or murine COX-2 was cloned into a BamHI site of the baculovirus transfer vector pVL1393 (Invitrogen) to generate the baculovirus transfer vectors for COX-1 and COX-2 in a manner similar to the method of D. R. O'Reilly et al (Baculovirus Expression Vectors: A Laboratory Manual (1992)). Recombinant baculoviruses were isolated by transfecting 4 μg of baculovirus transfer vector DNA into SF9 insect cells (2×10^8) along with 200 ng of linearized baculovirus plasmid DNA by the calcium phosphate method. See M. D. Summers and G. E. Smith, A Manual of Methods for Baculovirus Vectors and Insect Cell Culture Procedures, Texas Agric. Exp. Station Bull. 1555 (1987). Recombinant viruses were purified by three rounds of plaque purification and high titer (10^7–10^8 pfu/ml) stocks of virus were prepared. For large scale production, SF9 insect cells were infected in 10 liter fermentors (0.5×10^6/ml) with the recombinant baculovirus stock such that the multiplicity of infection was 0.1. After 72 hours the cells were centrifuged and the cell pellet homogenized in Tris/Sucrose (50 mM: 25%, pH 8.0) containing 1% 3-[(3-cholamidopropyl)dimethylammonio]-1-propanesulfonate (CHAPS). The homogenate was centrifuged at 10,000×G for 30 minutes, and the resultant supernatant was stored at −80° C. before being assayed for COX activity. […]
(§2) b. Assay for COX-1 and COX-2 Activity
(§3) COX activity was assayed as PGE2 formed/μg protein/time using an ELISA to detect the prostaglandin released. CHAPS-solubilized insect cell membranes containing the appropriate COX enzyme were incubated in a potassium phosphate buffer (50 mM, pH 8.0) containing epinephrine, phenol, and heme with the addition of arachidonic acid (10 μM). Compounds were pre-incubated with the enzyme for 10–20 minutes prior to the addition of arachidonic acid. Any reaction between the arachidonic acid and the enzyme was stopped after ten minutes at 37° C./room temperature by transferring 40 μl of reaction mix into 160 μl ELISA buffer and 25 μM indomethacin. The PGE2 formed was measured by standard ELISA technology (Cayman Chemical).

COX-2 = target: T2, COX-2 (UniProt P35354); assay: Assay for COX-2 activity in vitro (PGE2 ELISA, recombinant enzyme); format: biochemical, human or murine; details: recombinant COX-2, arachidonic acid 10 μM, pre-incubation 10–20 minutes
T2 sequence (P35354 1-604): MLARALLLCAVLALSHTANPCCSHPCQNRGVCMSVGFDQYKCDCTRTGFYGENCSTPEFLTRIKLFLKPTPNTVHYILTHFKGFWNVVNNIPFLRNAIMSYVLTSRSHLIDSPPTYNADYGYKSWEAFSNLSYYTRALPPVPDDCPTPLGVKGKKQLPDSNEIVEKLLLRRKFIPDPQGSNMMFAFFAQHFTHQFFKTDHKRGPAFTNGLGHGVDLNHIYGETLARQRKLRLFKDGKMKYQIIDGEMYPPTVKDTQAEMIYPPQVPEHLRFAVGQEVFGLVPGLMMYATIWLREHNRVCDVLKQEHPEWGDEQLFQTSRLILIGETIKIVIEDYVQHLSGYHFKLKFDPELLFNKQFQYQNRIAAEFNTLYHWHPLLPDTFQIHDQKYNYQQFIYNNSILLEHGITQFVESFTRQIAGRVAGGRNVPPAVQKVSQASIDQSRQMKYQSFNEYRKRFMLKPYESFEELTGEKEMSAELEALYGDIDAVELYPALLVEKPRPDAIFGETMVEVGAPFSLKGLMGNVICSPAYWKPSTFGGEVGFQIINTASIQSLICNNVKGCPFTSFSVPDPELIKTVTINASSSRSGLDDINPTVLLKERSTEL
Protocol: Evaluation of COX-1 and COX-2 Activity in vitro
The COX-2 inhibit on activity of the compounds or this invention illustrated in the Examples was determined by the following methods. a. Preparation of Recombinant COX Baculoviruses
as §1, §2, §3

| Compound | RAT PAW EDEMA % Inhibition @ 10 mg/kg body weight [1] | IC50 (5-lipoxygenase (5-LO)) | IC50 (COX-1) | IC50 (COX-2) | melting point |
| --- | --- | --- | --- | --- | --- |
| COC1(c2cc(F)cc(OCc3nc(-c4ccc(F)cc4)c(-c4ccc(S(C)(=O)=O)cc4)o3)c2)CCOCC1 [Example 3, 4-(4-Fluorophenyl)-2-[[3-fluoro-5-(3,4,5,6-tetrahydro-4-methoxy-2H-pyran-4-yl)phenoxy)methyl]-5-(4-(methylsulfonyl)phenyl)oxazole] | 15% | 20 nM | > 100000 nM | < 100 nM | – |
| COC1(c2cccc(CSCCc3nc(-c4ccccc4)c(-c4ccc(S(N)(=O)=O)cc4)o3)c2)CCOCC1 [Example 19, 4-[2-[[[3-(3,4,5,6-Tetrahydro-4-methoxypyran-4-yl)phenylmethyl]thio]ethyl]-4-phenyloxazol-5-yl]benzenesulfonamide] | – | > 10000 nM | 2300 nM | < 100 nM | 60.9 to 66.4 °C |
| COC1(c2cccc(CSc3nc(-c4ccccc4)c(-c4ccc(S(N)(=O)=O)cc4)o3)c2)CCOCC1 [Example 21] | – | > 10000 nM | 2600 nM | < 100 nM | 74.7 to 78.5 °C |

Reference: patent publication US6998415B2, “Substituted sulfonylphenylheterocycles as cyclooxygenase-2 and 5-lipoxygenase inhibitors” (Pharmacia Corporation, priority 1996, dated 2006)
